From the Kinase Knowledgebase extract (Sharma et al. 2016) come the findings set out here.

For assay [1], the target named is PIK3CA (human) (UniProt P42336). The assay can be described thus: Assessment of PIK3CA Kinase Activity Using One Step Solid Phase Assay.
Assay [2] shares this target. In words: Assessment of PIK3CA Kinase Activity Using Homogenous Solution Phase Assay.

A value given as a limit tells only on which side of the number the result lay.

Sequence of PIK3CA (human) (P42336 whole entry, looked up): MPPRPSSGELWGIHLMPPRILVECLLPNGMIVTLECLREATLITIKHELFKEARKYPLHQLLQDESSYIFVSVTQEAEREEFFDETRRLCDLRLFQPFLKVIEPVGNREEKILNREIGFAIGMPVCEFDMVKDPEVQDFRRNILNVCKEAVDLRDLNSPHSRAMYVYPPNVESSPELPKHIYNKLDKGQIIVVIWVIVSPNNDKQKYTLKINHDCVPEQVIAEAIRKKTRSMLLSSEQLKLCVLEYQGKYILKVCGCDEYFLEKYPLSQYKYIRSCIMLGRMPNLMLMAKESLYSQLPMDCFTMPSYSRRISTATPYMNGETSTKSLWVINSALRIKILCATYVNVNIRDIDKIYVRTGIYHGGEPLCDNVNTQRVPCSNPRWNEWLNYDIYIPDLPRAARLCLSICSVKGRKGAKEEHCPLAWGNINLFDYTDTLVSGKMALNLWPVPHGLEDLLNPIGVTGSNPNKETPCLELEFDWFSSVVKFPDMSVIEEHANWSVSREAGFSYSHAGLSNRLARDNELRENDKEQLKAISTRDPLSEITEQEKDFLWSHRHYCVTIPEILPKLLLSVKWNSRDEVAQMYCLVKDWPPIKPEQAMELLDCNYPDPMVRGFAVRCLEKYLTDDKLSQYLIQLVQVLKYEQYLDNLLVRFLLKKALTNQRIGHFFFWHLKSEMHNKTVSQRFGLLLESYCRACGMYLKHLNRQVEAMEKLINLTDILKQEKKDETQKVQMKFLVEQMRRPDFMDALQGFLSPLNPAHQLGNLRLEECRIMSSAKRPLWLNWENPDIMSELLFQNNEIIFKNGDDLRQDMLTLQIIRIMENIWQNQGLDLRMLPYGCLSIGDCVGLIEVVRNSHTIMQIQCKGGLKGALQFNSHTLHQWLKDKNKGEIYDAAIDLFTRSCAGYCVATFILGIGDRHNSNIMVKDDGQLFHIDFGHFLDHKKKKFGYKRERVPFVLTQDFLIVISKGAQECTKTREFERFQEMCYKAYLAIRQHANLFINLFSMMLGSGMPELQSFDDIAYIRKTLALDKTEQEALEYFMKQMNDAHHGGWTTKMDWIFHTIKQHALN

`Oc1cccc(-c2cc(Nc3ccccc3O)nc(N3CCOCC3)n2)c1`: the IC50 – broadly, the concentration at which inhibition is half-maximal – against PIK3CA (human) [1] is below 20 µM. Still for that read-out and setting: with `Cc1ccc(CN(Cc2ccccn2)c2cc(-c3cccc(O)c3)nc(N3CCOCC3)n2)cc1` the figure was below 20 µM. Compound `Oc1cccc(-c2cc(Nc3ccc(O)c(Cl)c3)nc(N3CCOCC3)n2)c1` registered an IC50 against PIK3CA (human) [2] below 20 µM.

`Oc1cccc(-c2cc(Nc3ccc4[nH]ncc4c3)nc(N3CCCNCC3)n2)c1` showed a concentration for half-maximal inhibition (IC50) on PIK3CA (human) [2] below 20 µM.

In turn, `OCC1CCCN1c1cc(-c2cccc(O)c2)nc(N2CCOCC2)n1` (configuration not stated) returned an IC50 on PIK3CA (human) [2] below 20 µM. In turn, `Oc1cccc(-c2cc(Nc3ccc4c(c3)CCC4)nc(N3CCOCC3)n2)c1` showed an IC50 on PIK3CA (human) [2] below 20 µM. Still for that read-out and setting: with `COc1ccc(Nc2cc(-c3cccc(O)c3)nc(N3CCOCC3)n2)cc1O` the figure was below 20 µM. Still for that read-out and setting: with `Cc1ccc(O)cc1-c1cc(Nc2cccnc2)nc(N2CCOCC2)n1` the figure was below 20 µM; with `Oc1cccc(-c2cc(Nc3ccccn3)nc(N3CCOCC3)n2)c1`, below 20 µM.

`Fc1cccc(-c2cc(Nc3cccnc3)nc(N3CCOCC3)n2)c1` registered a half-maximal inhibitory concentration (IC50) against PIK3CA (human) [2] below 20 µM. Consider `Oc1cccc(-c2cc(N3CCN(c4cccc(Cl)c4)CC3)nc(N3CCOCC3)n2)c1`, for which the IC50 against PIK3CA (human) [1] is below 20 µM.

For `Nc1cc(-c2cccc(O)c2)nc(N2CCOCC2)n1`, at PIK3CA (human) [2], the IC50 is below 20 µM. For the compound `CCOc1ccccc1Nc1cc(-c2cccc(O)c2)nc(N2CCOCC2)n1`, the IC50 on PIK3CA (human) [1] was below 20 µM. On the same count and under the same terms, with `CN1CCCN(c2cc(-c3cccc(O)c3)nc(N3CCOCC3)n2)CC1` the figure was below 20 µM; with `Oc1cccc(-c2cc(NCCc3cccnc3)nc(N3CCOCC3)n2)c1`, below 20 µM. On to `Oc1cccc(-c2cc(Nc3ccc4c(c3)OCCO4)nc(N3CCOCC3)n2)c1`, for which, on PIK3CA (human) [2], the 50% inhibitory concentration (IC50) was below 20 µM.

On PIK3CA (human) [1], `Oc1cccc(-c2cc(Nc3cc(-c4ccccc4)ccc3O)nc(N3CCOCC3)n2)c1` gave a half-inhibitory concentration (IC50) below 20 µM. Still for that read-out and setting: the same measure for `COc1cccc(-c2nc(N3CCOCC3)nc(Nc3cccnc3)c2C(=O)O)c1`: below 20 µM. Same read-out and setting: with `N[C@@H]1CCCC[C@H]1Nc1cc(-c2cccc(O)c2)nc(N2CCOCC2)n1` the figure was below 20 µM. The compound `FC(F)(F)c1cccc(-c2cc(Nc3cccnc3)nc(N3CCOCC3)n2)c1` yielded an IC50 on PIK3CA (human) [2] below 20 µM. At PIK3CA (human) [2], `Oc1cccc(-c2cc(Nc3ccc4ncccc4c3)nc(N3CCOCC3)n2)c1` gave a concentration for half-maximal inhibition (IC50) below 20 µM. On PIK3CA (human) [1], `COc1ccc(OC)c(Nc2cc(-c3cccc(O)c3)nc(N3CCOCC3)n2)c1` gave an IC50 below 20 µM. Still for that read-out and setting: with `Oc1cccc(-c2cc(Nc3ccc(Oc4ccccc4)cc3)nc(N3CCOCC3)n2)c1` the figure was below 20 µM; with `CCOc1ccc(OCC)c(Nc2cc(-c3cccc(O)c3)nc(N3CCOCC3)n2)c1`, below 20 µM; with `CCCCOc1ccc(Nc2cc(-c3cccc(O)c3)nc(N3CCOCC3)n2)cc1`, below 20 µM. Still for that read-out and setting: with `Oc1cccc(Nc2cc(-c3cccc(O)c3)nc(N3CCOCC3)n2)c1` the figure was below 20 µM; with `Oc1cccc(-c2cc(Nc3cccc(Oc4ccccc4)c3)nc(N3CCOCC3)n2)c1`, below 20 µM. Still for that read-out and setting: the same measure for `Oc1ccc(Nc2cc(-c3cccc(O)c3)nc(N3CCOCC3)n2)cc1`: below 20 µM. At PIK3CA (human) [2], `Oc1cccc(-c2cc(Nc3ccc4nc[nH]c4c3)nc(N3CCOCC3)n2)c1` gave an IC50 below 20 µM. At PIK3CA (human) [1], `COc1ccc(Nc2cc(-c3cccc(O)c3)nc(N3CCOCC3)n2)c(OC)c1` had an IC50 below 20 µM. On the same count and under the same terms, the same measure for `Oc1cccc(-c2cc(NCCCn3ccnc3)nc(N3CCOCC3)n2)c1`: below 20 µM. Same read-out and setting: the same measure for `Oc1cccc(-c2cc(Nc3cc(Cl)ccc3O)nc(N3CCOCC3)n2)c1`: below 20 µM. On to `O=[N+]([O-])c1cc(Nc2cc(-c3cccc(O)c3)nc(N3CCOCC3)n2)ccc1O`, for which the concentration for half-maximal inhibition (IC50) on PIK3CA (human) [2] was below 20 µM. Still for that read-out and setting: the same measure for `Oc1cccc(-c2cc(Nc3ccc4cn[nH]c4c3)nc(N3CCOCC3)n2)c1`: below 20 µM.

Consider `COc1ccc(Nc2cc(-c3cccc(O)c3)nc(N3CCOCC3)n2)cc1OC`, for which, on PIK3CA (human) [2], the IC50 is below 20 µM. Same read-out and setting: with `Oc1cccc(-c2cc(Nc3ccc4c(c3)NCC4)nc(N3CCOCC3)n2)c1` the figure was below 20 µM; with `Oc1cccc(-c2cc(Nc3cccc4cnccc34)nc(N3CCOCC3)n2)c1`, below 20 µM. `CCOc1ccc(Nc2cc(-c3cccc(O)c3)nc(N3CCOCC3)n2)cc1`: the IC50 against PIK3CA (human) [1] was below 20 µM.

On PIK3CA (human) [1], `Oc1cccc(-c2cc(N(Cc3ccccc3)Cc3ccccc3)nc(N3CCOCC3)n2)c1` gave an IC50 below 20 µM. Still for that read-out and setting: the same measure for `COc1cccc(Nc2cc(-c3cccc(O)c3)nc(N3CCOCC3)n2)c1`: below 20 µM. On PIK3CA (human) [2], `Oc1cccc(-c2cc(Nc3ccc4c(c3)Cc3ccccc3-4)nc(N3CCOCC3)n2)c1` gave an IC50 below 20 µM. On to `COc1cccc(Nc2cc(-c3cccc(O)c3)nc(N3CCOCC3)n2)c1OC`, for which the 50% inhibitory concentration (IC50) on PIK3CA (human) [1] was below 20 µM.

Consider `COc1cc(Nc2cc(-c3cccc(O)c3)nc(N3CCOCC3)n2)cc(OC)c1OC`, for which the IC50 at PIK3CA (human) [2] is below 20 µM. For the compound `NC1CCCC(Nc2cc(-c3cccc(O)c3)nc(N3CCOCC3)n2)C1` (configuration not stated), the IC50 against PIK3CA (human) [1] is below 20 µM. The same measure, in the same setting: the same measure for `Oc1cccc(-c2cc(Nc3ccc4c(c3)OCCCO4)nc(N3CCOCC3)n2)c1`: below 20 µM. With `Cc1ccc(Nc2cc(-c3cccc(O)c3)nc(N3CCOCC3)n2)cc1C`, the IC50 against PIK3CA (human) [2] was below 20 µM. For the compound `Oc1cccc(-c2cc(NCCc3ccccn3)nc(N3CCOCC3)n2)c1`, on PIK3CA (human) [1], the 50% inhibitory concentration (IC50) was below 20 µM. At PIK3CA (human) [1], `COc1ccc(Nc2cc(-c3ccccc3)nc(N3CCOCC3)n2)cc1O` gave an IC50 below 20 µM. For the compound `COc1cccc(-c2cc(Nc3cccnc3)nc(N3CCOCC3)n2)c1`, on PIK3CA (human) [2], the IC50 was below 20 µM. Turning to `O=C(CN1CCN(c2cc(-c3cccc(O)c3)nc(N3CCOCC3)n2)CC1)N1CCOCC1`, the half-maximal inhibitory concentration (IC50) against PIK3CA (human) [1] is below 20 µM. The compound `Cc1ccc(CN(Cc2cccnc2)c2cc(-c3cccc(O)c3)nc(N3CCOCC3)n2)cc1` displayed a concentration for half-maximal inhibition (IC50) against PIK3CA (human) [1] below 20 µM. In turn, `Oc1cccc(-c2cc(Nc3ccc4[nH]ncc4c3)nc(N3CCCCCC3)n2)c1` had an IC50 against PIK3CA (human) [2] below 20 µM. Still for that read-out and setting: with `Oc1cccc(-c2cc(N(Cc3ccccc3)Cc3nccs3)nc(N3CCOCC3)n2)c1` the figure was below 20 µM; with `O=c1[nH]c2ccc(Nc3cc(-c4cccc(O)c4)nc(N4CCOCC4)n3)cc2[nH]1`, below 20 µM. Consider `COc1ccc(Nc2cc(-c3cccc(O)c3)nc(N3CCOCC3)n2)cc1OC1CCCC1`, for which the IC50 on PIK3CA (human) [1] was below 20 µM. Still for that read-out and setting: the same measure for `COc1cc(Nc2ccccc2)ccc1Nc1cc(-c2cccc(O)c2)nc(N2CCOCC2)n1`: below 20 µM.

`Oc1cccc(-c2cc(Nc3cnccn3)nc(N3CCOCC3)n2)c1` returned an IC50 at PIK3CA (human) [2] below 20 µM. In turn, `Oc1cccc(-c2cc(Nc3ccc4c(c3)OCO4)nc(N3CCOCC3)n2)c1` yielded a concentration for half-maximal inhibition (IC50) against PIK3CA (human) [2] below 20 µM. Compound `COc1cccc(C)c1Nc1cc(-c2cccc(O)c2)nc(N2CCOCC2)n1` yielded a 50% inhibitory concentration (IC50) against PIK3CA (human) [1] below 20 µM.

For `COc1ccccc1Nc1cc(-c2cccc(O)c2)nc(N2CCOCC2)n1`, the half-inhibitory concentration (IC50) at PIK3CA (human) [1] was below 20 µM. Same read-out and setting: the same measure for `CCn1c(C)nc2cc(Nc3cc(-c4cccc(O)c4)nc(N4CCOCC4)n3)ccc21`: below 20 µM; for `COc1c(Nc2cc(-c3cccc(O)c3)nc(N3CCOCC3)n2)ccc2c1oc1ccccc12`: below 20 µM.

`Oc1cccc(-c2cc(N3CCC(O)CC3)nc(N3CCOCC3)n2)c1` displayed an IC50 at PIK3CA (human) [1] below 20 µM. At PIK3CA (human) [1], `Oc1cccc(-c2cc(Nc3cccc(OCc4ccccc4)c3)nc(N3CCOCC3)n2)c1` displayed an IC50 below 20 µM.

`Oc1cccc(-c2cc(N3CCN(CCc4ccccc4)CC3)nc(N3CCOCC3)n2)c1` came in with an IC50 against PIK3CA (human) [1] below 20 µM. As for `Oc1cccc(-c2cc(N3CCN(Cc4ccc5c(c4)OCO5)CC3)nc(N3CCOCC3)n2)c1`, the IC50 at PIK3CA (human) [1] was below 20 µM. Turning to `Fc1ccccc1-c1cc(Nc2ccc3[nH]ncc3c2)nc(N2CCOCC2)n1`, the half-maximal inhibitory concentration (IC50) against PIK3CA (human) [1] was below 20 µM.
